In patent publication US4428955A, “Benzopyran compounds, pharmaceutical compositions containing them and methods of use” (Boehringer Mannheim GmbH, priority 1981, dated 1984):

Test system: antigen induced bronchospasm
Test: Inhibition of antigen induced bronchospasm in passively sensitized guinea pigs
Format: in vivo, guinea pig
Conditions: 60 min before antigen, 3 min after antigen application
Method: The following tests were conducted to determine the effectiveness of the new compounds in the inhibition of antigen induced bronchospasm in passively sensitized guinea pigs.
The antigen is twice recrystallised egg albumin. Equal volumes of saline solution of antigen (5 mg/ml) and Freund's complete adjuvant were emulsified and 0.15 ml injected into each hind foot of adult male guinea pigs (DAVIES and JOHNSON: Int. Arch. Allergy 41, 648-654 (1971)).
The animals were bled and the pooled serum stored at -20° C.
Injections of 0.5 ml antiserum of 1:50 dilution were given i.v. 24-48 h before challenge.
Guinea pigs were anaesthetized with pentobarbitone sodium (40 mg/kg i.p.). Cannulae were tied into the trachea and the jugular vein and the lung inflated with a pump at a rate of 72 strokes/min and a constant stroke volume of 6-8 ml.
Bronchospasm, provoked by injecting ovalbumin i.v. was measured as described in COLLIER, H. O. J., J. A. HOLGATE, M. SCHACHTER: THE BRONCHOCONSTRICTOR ACTION OF BRADYKININ IN THE GUINEA-PIG. Brit. J. Pharmacol. 15, 290 (1960) and KONZETT, H. und R. ROSSLER: Versuchsanordnung zu Untersuchungen an der Bronchialmuskulatur. Naunyn-Schmiedebergs Arch. exp. Path. Pharmk. 195, 71-74 (1940)
Drugs were applied p.o. 60 min before antigen. For calculation the following formular was used: [formula]
b=Bronchospasm after antigen injection, measured in mm from tracing
m=maximum height of tracing in mm with arm of the trachea-cannula clamped
a=pre injection height of the tracing in mm
% inhibition of bronchospasm was calculated by comparing control groups with drug pretreated groups 3 min after antigen application.

SMILES: Cc1cc(=O)c2ccc(OCCCN3CCC(NC(=O)c4ccc(F)cc4)CC3)cc2o1 [7-{3-[4-(4-fluorobenzamido)-piperidino]-propoxy}-2-methyl-4H-1-benzopyran-4-one]
- % Inhibition of BrSp (bronchospasm) (0.38 mg/kg p.o.): 46%

SMILES: Cc1cc(=O)c2ccc(OCCCN3CCC(NC(=O)c4ccccc4)CC3)cc2o1 [7-[3-(4-Benzamidopiperidino)-propoxy]-2-methyl-4H-1-benzopyran-4-one]
- % Inhibition of BrSp (bronchospasm) (0.38 mg/kg p.o.): 55%
- % Inhibition of BrSp (bronchospasm) (0.75 mg/kg p.o.): 64%

SMILES: Cc1cc(=O)c2ccc(OCCCN3CCC(NC(=O)c4ccccc4C)CC3)cc2o1 [7-{3-[4-(2-methylbenzamido)-piperidino]-propoxy}-2-methyl-4H-1-benzopyran-4-one]
- % Inhibition of BrSp (bronchospasm) (0.75 mg/kg p.o.): 60%

SMILES: Cc1c(C)c2ccc(OCCCN3CCC(NC(=O)c4cccs4)CC3)cc2oc1=O [3,4-Dimethyl-7-{3-[4-(thiophene-2-carboxamido)-piperidino]-propoxy}-cumarin, reference compound]
- % Inhibition of BrSp (bronchospasm) (0.75 mg/kg p.o.): 0%
- % Inhibition of BrSp (bronchospasm) (1.5 mg/kg p.o.): 40%
- % Inhibition of BrSp (bronchospasm) (3.0 mg/kg p.o.): 67%
